# Experimental data reported in patent publication EP0497314A1, “Use of azapirones in attention deficit hyperactivity disorder” (Bristol-Myers Squibb Company, priority 1991, dated 1992).
# Marks after values point to notes of the source that are not given here.
# How the values were obtained:
# [1] = test system: fronto-occipital cortex of the cat; assay: Quantitative EEG, fronto-occipital cat cortex, subcutaneous administration; type: in vivo, cats; settings: in vivo
# From the text: This unique combination of activity may render buspirone useful in the treatment of childhood hyperkinesis which has been reported to respond to both selected phenothiazine and stimulant drugs. • (b) Adult mongrel female cats weighing 2.5-4.0 kg were implanted with EEG recording electrodes. Recording sites were as follows: fronto-occipital cortex, basal amygdala and ventral hippocampus.
# Animals were individually held in canvas feline restraining bags for EEG recording. The EEG of each brain area was recorded on a separate channel. The instrumentation filtered each channel of EEG and analog data into five distinct frequency bands: Δ=0.5-3.5 Hz, ϑ=3.5-7.0 Hz, α=7-13 Hz, β=13-25 Hz and γ=25-40 Hz. The EEG analyzer then integrated the filtered waveforms and sent pulses to an associated computer at a rate proportional to the electrical energy of each band. Data collecting procedures were essentially the same as reported in Example 1. However, groups of six animals each were used and all drugs were administered subcutaneously in saline solution as their respective salts, but all dosages were calculated as the free base. Recording was started 30 minutes after injection to insure adequate drug absorption for peak activity.
# Drug-induced EEG changes were determined by comparing the post-treatment data to the pre-treatment control in the same animal. Statistical analysis was performed on change from control, in instrument counts, using multiple Student-t-paired-comparison test with P≦0.05 (Table 2). However, for clarity data are also presented as percent change from control (Figures 3, 4 and 5).
# The data in Table 2 are drug-induced changes resulting from the minimum and higher doses of each compound required to elicit the EEG profile characteristic of that particular drug.
# [2] = test system: rabbit cortex; assay: Quantitative EEG, rabbit cortex, intravenous administration; type: in vivo, rabbits; settings: rabbit, in vivo
# Procedure: At least 2 weeks were allowed for recovery before beginning experimentation.
# Groups of four animals each were individually restrained and connected to an EEG amplifier and frequency analyzer. The EEG of each animal was recorded on a separate channel. The instrumentation filtered each channel of EEG analog data into five distinct frequency bands: Δ=0.5-3.5 Hz, ϑ=3.5-7.0 Hz, α=7-13 Hz, β=13-25 Hz and γ=25-40 Hz. The EEG analyzer then integrated the filtered waveforms and sent pulses to an associated computer at a rate proportional to the electrical energy of each band. Thus, one computer print-out provided a cortical EEG profile for the entire group of four rabbits.
# Data from a one-hour recording period were collected in four 15-minute periods, which provided additional information concerning both onset and time of peak effect of drug activity. However, in this report only the mean activity of the four data collection periods was considered since onset of drug activity was immediate and duration of action was at least one hour for all drugs studied. Drug-induced EEG changes were determined by comparing the post-treatment print-out to the pretreatment control in the same animal and statistical analysis was performed on change from control, in counts, using multiple Student-t paired-comparison tests with p≦0.05 (Table 1). However, for clarity data are also presented as percent change from control (Figures 1 and 2).
# All drugs were administered intravenously in saline solution as their respective salts and all dosage calculations were based on the free base. Recording was started immediately after injection and animals were not used more often than once per week. Initial doses were reduced geometrically until a no-effect dose was determined for each drug. However, only the "no-effect" data and the data generated from the next higher dose are presented in this report since the shape of the EEG profile is not dose-related, as opposed to the magnitude of the response which is dose-related.
structure (smiles),measurement,setting,value
"C[C@H](N)Cc1ccccc1 [Dextroamphetamine 1/2H2SO4, dextroamphetamine]",the minimum dose required to produce the EEG profile characteristic of that particular drug,[1],"0.125‡ mg/kg, s.c."
same,the no-effect dose,[1],"0.0625† mg/kg, s.c."
same,relative potency by comparing minimal doses required to elicit EEG profiles,[1]; sc,approximately twice as potent as buspirone and methylphenidate
same,"group percent change in electrical energy from pre-drug control, Δ band","[1]; sc, 0.0625 mg/kg",-18 ± 6 (-8) percent
same,"group percent change in electrical energy from pre-drug control, α band","[1]; sc, 0.0625 mg/kg",-12 ± 8 (-8) percent
same,"group percent change in electrical energy from pre-drug control, β band","[1]; sc, 0.0625 mg/kg",+1 ± 5 (+1) percent
same,"group percent change in electrical energy from pre-drug control, γ band","[1]; sc, 0.0625 mg/kg",+2 ± 3 (+2) percent
same,"group percent change in electrical energy from pre-drug control, θ band","[1]; sc, 0.0625 mg/kg",-15 ± 7 (-10) percent
same,"mean change ± S.E. in electrical energy from pre-drug control, Δ band","[1]; sc, 0.0625 mg/kg",-18 ± 6 (-8) instrument counts
same,"mean change ± S.E. in electrical energy from pre-drug control, α band","[1]; sc, 0.0625 mg/kg",-12 ± 8 (-8) instrument counts
same,"mean change ± S.E. in electrical energy from pre-drug control, β band","[1]; sc, 0.0625 mg/kg",+1 ± 5 (+1) instrument counts
same,"mean change ± S.E. in electrical energy from pre-drug control, γ band","[1]; sc, 0.0625 mg/kg",+2 ± 3 (+2) instrument counts
same,"mean change ± S.E. in electrical energy from pre-drug control, θ band","[1]; sc, 0.0625 mg/kg",-15 ± 7 (-10) instrument counts
same,"group percent change in electrical energy from pre-drug control, Δ band","[1]; sc, 0.125 mg/kg",-85 ± 21 (-35) percent
same,"group percent change in electrical energy from pre-drug control, α band","[1]; sc, 0.125 mg/kg",-29 ± 9 (-26) percent
same,"group percent change in electrical energy from pre-drug control, β band","[1]; sc, 0.125 mg/kg",-3 ± 4 (-3) percent
same,"group percent change in electrical energy from pre-drug control, γ band","[1]; sc, 0.125 mg/kg",+8 ± 2 (+12) percent
same,"group percent change in electrical energy from pre-drug control, θ band","[1]; sc, 0.125 mg/kg",-44 ± 8 (-33) percent
same,"mean change ± S.E. in electrical energy from pre-drug control, Δ band","[1]; sc, 0.125 mg/kg",-85 ± 21 (-35) instrument counts
same,"mean change ± S.E. in electrical energy from pre-drug control, α band","[1]; sc, 0.125 mg/kg",-29 ± 9 (-26) instrument counts
same,"mean change ± S.E. in electrical energy from pre-drug control, β band","[1]; sc, 0.125 mg/kg",-3 ± 4 (-3) instrument counts
same,"mean change ± S.E. in electrical energy from pre-drug control, γ band","[1]; sc, 0.125 mg/kg",+8 ± 2 (+12) instrument counts
same,"mean change ± S.E. in electrical energy from pre-drug control, θ band","[1]; sc, 0.125 mg/kg",-44 ± 8 (-33) instrument counts
same,"group percent change in electrical energy from pre-drug control, Δ band","[1]; sc, 0.5 mg/kg",-78 ± 32 (-33) percent
same,"group percent change in electrical energy from pre-drug control, α band","[1]; sc, 0.5 mg/kg",-71 ± 11 (-51) percent
same,"group percent change in electrical energy from pre-drug control, β band","[1]; sc, 0.5 mg/kg",-18 ± 9 (-15) percent
same,"group percent change in electrical energy from pre-drug control, γ band","[1]; sc, 0.5 mg/kg",+18 ± 4 (+25) percent
same,"group percent change in electrical energy from pre-drug control, θ band","[1]; sc, 0.5 mg/kg",-76 ± 13 (-51) percent
same,"mean change ± S.E. in electrical energy from pre-drug control, Δ band","[1]; sc, 0.5 mg/kg",-78 ± 32 (-33) instrument counts
same,"mean change ± S.E. in electrical energy from pre-drug control, α band","[1]; sc, 0.5 mg/kg",-71 ± 11 (-51) instrument counts
same,"mean change ± S.E. in electrical energy from pre-drug control, β band","[1]; sc, 0.5 mg/kg",-18 ± 9 (-15) instrument counts
same,"mean change ± S.E. in electrical energy from pre-drug control, γ band","[1]; sc, 0.5 mg/kg",+18 ± 4 (+25) instrument counts
same,"mean change ± S.E. in electrical energy from pre-drug control, θ band","[1]; sc, 0.5 mg/kg",-76 ± 13 (-51) instrument counts
same,"group percent change in electrical energy from pre-drug control, Δ band","[1]; sc, 4 mg/kg",+64 ± 27 (+29) percent
same,"group percent change in electrical energy from pre-drug control, α band","[1]; sc, 4 mg/kg",-44 ± 13 (-35) percent
same,"group percent change in electrical energy from pre-drug control, β band","[1]; sc, 4 mg/kg",-6 ± 9 (-5) percent
same,"group percent change in electrical energy from pre-drug control, γ band","[1]; sc, 4 mg/kg",+50 ± 8 (+63) percent
same,"group percent change in electrical energy from pre-drug control, θ band","[1]; sc, 4 mg/kg",-34 ± 13 (-24) percent
same,"mean change ± S.E. in electrical energy from pre-drug control, Δ band","[1]; sc, 4 mg/kg",+64 ± 27 (+29) instrument counts
same,"mean change ± S.E. in electrical energy from pre-drug control, α band","[1]; sc, 4 mg/kg",-44 ± 13 (-35) instrument counts
same,"mean change ± S.E. in electrical energy from pre-drug control, β band","[1]; sc, 4 mg/kg",-6 ± 9 (-5) instrument counts
same,"mean change ± S.E. in electrical energy from pre-drug control, γ band","[1]; sc, 4 mg/kg",+50 ± 8 (+63) instrument counts
same,"mean change ± S.E. in electrical energy from pre-drug control, θ band","[1]; sc, 4 mg/kg",-34 ± 13 (-24) instrument counts
same,the minimum dose required to produce the EEG profile characteristic of that particular drug,[2],"0.25‡ mg/kg, i.v."
same,the no-effect dose,[2],"0.125† mg/kg, i.v."
same,relative potency by comparing minimal doses required to elicit EEG profiles,[2]; iv,approximately twice as potent as buspirone
same,"group percent change in electrical energy from pre-drug control, Δ band","[2]; iv, 0.125 mg/kg",+4 ± 17 (+2) percent
same,"group percent change in electrical energy from pre-drug control, α band","[2]; iv, 0.125 mg/kg",0 ± 9 (0) percent
same,"group percent change in electrical energy from pre-drug control, β band","[2]; iv, 0.125 mg/kg",+2 ± 6 (+1) percent
same,"group percent change in electrical energy from pre-drug control, γ band","[2]; iv, 0.125 mg/kg",+1 ± 1 (+1) percent
same,"group percent change in electrical energy from pre-drug control, θ band","[2]; iv, 0.125 mg/kg",-9 ± 6 (-5) percent
same,"mean change ± S.E. in electrical energy from pre-drug control, Δ band","[2]; iv, 0.125 mg/kg",+4 ± 17 (+2) instrument counts
same,"mean change ± S.E. in electrical energy from pre-drug control, α band","[2]; iv, 0.125 mg/kg",0 ± 9 (0) instrument counts
same,"mean change ± S.E. in electrical energy from pre-drug control, β band","[2]; iv, 0.125 mg/kg",+2 ± 6 (+1) instrument counts
same,"mean change ± S.E. in electrical energy from pre-drug control, γ band","[2]; iv, 0.125 mg/kg",+1 ± 1 (+1) instrument counts
same,"mean change ± S.E. in electrical energy from pre-drug control, θ band","[2]; iv, 0.125 mg/kg",-9 ± 6 (-5) instrument counts
same,"group percent change in electrical energy from pre-drug control, α band","[2]; iv, 0.25 mg/kg",+27 ± 9 (-22) percent
same,"group percent change in electrical energy from pre-drug control, β band","[2]; iv, 0.25 mg/kg",-21 ± 6 (-20) percent
same,"group percent change in electrical energy from pre-drug control, γ band","[2]; iv, 0.25 mg/kg",-4 ± 1 (-5) percent
same,"group percent change in electrical energy from pre-drug control, θ band","[2]; iv, 0.25 mg/kg",-35 ± 9 (-25) percent
same,"mean change ± S.E. in electrical energy from pre-drug control, Δ band","[2]; iv, 0.25 mg/kg",-64 ± 19 (-33) instrument counts
same,"mean change ± S.E. in electrical energy from pre-drug control, β band","[2]; iv, 0.25 mg/kg",-21 ± 6 (-20) instrument counts
same,"mean change ± S.E. in electrical energy from pre-drug control, γ band","[2]; iv, 0.25 mg/kg",-4 ± 1 (-5) instrument counts
same,"mean change ± S.E. in electrical energy from pre-drug control, θ band","[2]; iv, 0.25 mg/kg",-35 ± 9 (-25) instrument counts
